Reference: US12522588B2, “Herbicidal compounds” (SYNGENTA CROP PROTECTION AG, priority 2020, dated 2026)

Assays:
Type in all cases: in vivo
[1] = tested on: Ipomoea hederacea (IPOHE); assay: Pre-emergence test, glasshouse; details: 250 g/ha
Method: (§1) Seeds of a variety of test species are sown in standard soil in pots Amaranthus retoflexus (AMARE), Abutilon theophrasti (ABUTH), Setaria faberi (SETFA), Echinochloa crus-galli (ECHCG), Ipomoea hederacea (IPOHE)). After cultivation for one day (pre-emergence) or after 8 days cultivation (post-emergence) under controlled conditions in a glasshouse (at 24/16° C., day/night; 14 hours light; 65% humidity), the plants are sprayed with an aqueous spray solution derived from the formulation of the technical active ingredient in acetone/water (50:50) solution containing 0.5% Tween 20 (polyoxyethelyene sorbitan monolaurate, CAS RN 9005-64-5). Compounds are applied at 250 g/ha unless otherwise stated. The test plants are then grown in a glasshouse under controlled conditions in a glasshouse (at 24/16° C., day/night; 14 hours light; 65% humidity) and watered twice daily. After 13 days for pre and post-emergence, the test is evaluated for the percentage damage caused to the plant. The biological activities are shown in the following table on a five-point scale (5=81-100%; 4=61-80%; 3=41-60%; 2=21-40%; 1=0-20%).

[2] = tested on: Amaranthus retoflexus (AMARE); assay: Pre-emergence test, glasshouse; details: 250 g/ha
Method: as §1

Setaria faberi (SETFA) [3] = assay: Pre-emergence test, glasshouse; details: 250 g/ha
Method: as §1

[4] = tested on: Abutilon theophrasti (ABUTH); assay: Pre-emergence test, glasshouse; details: 250 g/ha; for percentage damage caused to the plant, ABUTH: evaluated after 13 days, Table B2; for percentage damage caused to the plant, LABUTH: comparative test
Method: as §1

[5] = tested on: Echinochloa crus-galli (ECHCG); assay: Pre-emergence test, glasshouse; details: 250 g/ha
Method: as §1

[6] = tested on: Ipomoea hederacea (IPOHE); assay: Post-emergence test, glasshouse; details: 250 g/ha
Method: as §1

[7] = tested on: Amaranthus retoflexus (AMARE); assay: Post-emergence test, glasshouse; details: 250 g/ha
Method: as §1

Setaria faberi (SETFA) [8] = assay: Post-emergence test, glasshouse; details: 250 g/ha
Method: as §1

[9] = tested on: Abutilon theophrasti (ABUTH); assay: Post-emergence test, glasshouse; details: 250 g/ha
Method: as §1

[10] = tested on: Echinochloa crus-galli (ECHCG); assay: Post-emergence test, glasshouse; details: 250 g/ha
Method: as §1

[11] = evaluated after 13 days, Table B2
[12] = evaluated after 13 days, Table B1

## FC(F)(F)c1cc(Oc2ncc(Cl)cn2)n(-c2cccc(Cl)c2)n1 [Compound 1.004]
[1]; [11]
  percentage damage caused to the plant, IPOHE: 1 (1=0-20%)
[2]; [11]
  percentage damage caused to the plant, AMARE: 5 (5=81-100%)
Setaria faberi (SETFA) [3]; [11]
  percentage damage caused to the plant, SETFA: 3 (3=41-60%)
[4]
  percentage damage caused to the plant, ABUTH: 1 (1=0-20%)
[5]; [11]
  percentage damage caused to the plant, ECHCG: 2 (2=21-40%)
[6]; [12]
  percentage damage caused to the plant, IPOHE: 4 (4=61-80%)
[7]; [12]
  percentage damage caused to the plant, AMARE: 5 (5=81-100%)
Setaria faberi (SETFA) [8]; [12]
  percentage damage caused to the plant, SETFA: 3 (3=41-60%)
[9]; [12]
  percentage damage caused to the plant, ABUTH: 1 (1=0-20%)
[10]; [12]
  percentage damage caused to the plant, ECHCG: 3 (3=41-60%)

## Cc1cc(Oc2ncc(Cl)cn2)n(-c2ccc(Cl)cc2)n1 [Compound C2, reference compound]
[1]; comparative test
  percentage damage caused to the plant, IPOHE: 1 (1=0-20%)
[2]; comparative test
  percentage damage caused to the plant, AMARE: 1 (1=0-20%)
Setaria faberi (SETFA) [3]; comparative test
  percentage damage caused to the plant, SETFA: 1 (1=0-20%)
[4]
  percentage damage caused to the plant, LABUTH: 1 (1=0-20%)
[5]; comparative test
  percentage damage caused to the plant, ECHCG: 1 (1=0-20%)
[6]; comparative test
  percentage damage caused to the plant, IPOHE: 1 (1=0-20%)
[7]; comparative test
  percentage damage caused to the plant, AMARE: 3 (3=41-60%)
Setaria faberi (SETFA) [8]; comparative test
  percentage damage caused to the plant, SETFA: 2 (2=21-40%)
[9]; comparative test
  percentage damage caused to the plant, ABUTH: 1 (1=0-20%)
[10]; comparative test
  percentage damage caused to the plant, ECHCG: 2 (2=21-40%)

## FC(F)(F)c1cc(Oc2ncc(Cl)cn2)n(-c2ccc(Cl)cc2)n1 [Compound 1.002]
[1]; [11]
  percentage damage caused to the plant, IPOHE: 1 (1=0-20%)
[1]; comparative test
  percentage damage caused to the plant, IPOHE: 1 (1=0-20%)
[2]; [11]
  percentage damage caused to the plant, AMARE: 5 (5=81-100%)
[2]; comparative test
  percentage damage caused to the plant, AMARE: 5 (5=81-100%)
Setaria faberi (SETFA) [3]; [11]
  percentage damage caused to the plant, SETFA: 5 (5=81-100%)
Setaria faberi (SETFA) [3]; comparative test
  percentage damage caused to the plant, SETFA: 5 (5=81-100%)
[4]
  percentage damage caused to the plant, ABUTH: 2 (2=21-40%)
  percentage damage caused to the plant, LABUTH: 2 (2=21-40%)
[5]; [11]
  percentage damage caused to the plant, ECHCG: 5 (5=81-100%)
[5]; comparative test
  percentage damage caused to the plant, ECHCG: 5 (5=81-100%)
[6]; [12]
  percentage damage caused to the plant, IPOHE: 4 (4=61-80%)
[6]; comparative test
  percentage damage caused to the plant, IPOHE: 4 (4=61-80%)
[7]; [12]
  percentage damage caused to the plant, AMARE: 5 (5=81-100%)
[7]; comparative test
  percentage damage caused to the plant, AMARE: 5 (5=81-100%)
Setaria faberi (SETFA) [8]; [12]
  percentage damage caused to the plant, SETFA: 5 (5=81-100%)
Setaria faberi (SETFA) [8]; comparative test
  percentage damage caused to the plant, SETFA: 5 (5=81-100%)
[9]; [12]
  percentage damage caused to the plant, ABUTH: 3 (3=41-60%)
[9]; comparative test
  percentage damage caused to the plant, ABUTH: 3 (3=41-60%)
[10]; [12]
  percentage damage caused to the plant, ECHCG: 5 (5=81-100%)
[10]; comparative test
  percentage damage caused to the plant, ECHCG: 5 (5=81-100%)
